Among the data in PubChem BioAssay (NCI) are TGI values, retold here.

Experiment in all cases: inhibition of tumour cell growth, NCI panel, 48 h
The test system of assay [1] is UO-31 renal.
The subject of assay [2] is OVCAR-3 ovarian.
For assay [3], the system named is SK-MEL-2 melanoma.
Assay [4] deals with MCF7 breast.
For assay [5], the system named is SN12C renal.
Assay [6] relates to NCI-H460 lung.
Assay [7] relates to OVCAR-4 ovarian.
For assay [8], the system named is HCT-15 colon.
In assay [9] the test system is MOLT-4 leukemia.
Assay [10] has as its system HOP-92 NSCLC.
The test system of assay [11] is UACC-257 melanoma.
Assay [12] relates to SK-MEL-5 melanoma.
The test system of assay [13] is COLO 205 colon.
For assay [14], the system named is KM12 colon.
The subject of assay [15] is UACC-62 melanoma.
Assay [16] deals with IGROV1 ovarian.
Assay [17] concerns A498 renal.
For assay [18], the system named is NCI-H226 lung.
For assay [19], the system named is SK-MEL-28 melanoma.
For assay [20], the system named is T-47D breast.

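Grown in 96-well plates, cells were treated for 48 hours with each compound at five concentrations. Insufficient inhibition: endpoint recorded as highest concentration tested. TGI: total growth inhibition.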 Where only a bound is given, the exact number is not on record here.

As to `COc1c(C)c(C/C=C(\C)CCCCO)c(OC)c(OC)c1OC`, the TGI is above 100 µM in assay [1]; above 100 µM in assay [2]; above 100 µM in assay [3]; above 100 µM in assay [4]; above 100 µM in [5]; 35.1 µM in assay [6]. For the same compound, the TGI in assay [7], in assay [8], in [9], in assay [10], in [11] and in assay [12] was above 100 µM each time. Moreover, the TGI was above 100 µM in assay [13], 41.5 µM in assay [14], above 100 µM in [15] and above 100 µM in assay [16].
On to `CC(C)c1c(O[Si](C(C)C)(C(C)C)C(C)C)c2c3c(ccc4c3c1OC4(C)C)C(C)CC2` (stereo not drawn), for which the TGI in assay [17], in assay [1], in assay [2], in [3], in assay [4] and in [5] was above 100 µM throughout. Moreover, the TGI in assay [18], in assay [6], in [7], in [8], in [9] and in assay [10] was above 100 µM throughout. The TGI in assay [11], in assay [12], in assay [13], in [14], in [15] and in [16] was above 100 µM in each case. The same compound returned a TGI in assay [19] above 100 µM.
Consider `Cc1ccc(C(CC(=O)C(C)(C)CN2CCCCC2)SCCS(=O)(=O)O)cc1` (stereo not drawn), for which the TGI in [17] was determined as 48.7 µM; in assay [1] it was 65.3 µM; in assay [2], 49.5 µM; in assay [3], 40.1 µM; in assay [4], 83.8 µM; in assay [5] it was 94.8 µM. In addition, the TGI is 70.5 µM in [18]; above 100 µM in assay [6]; 84.3 µM in assay [7]; 72 µM in [8]; 48.7 µM in [9]; 42.3 µM in assay [10]. For the same compound, the TGI is 46.5 µM in [12]; 35.3 µM in assay [13]; above 100 µM in assay [14]; 46.8 µM in [15]; above 100 µM in [16].
Consider `CC(C)=C[C@@H]1C[C@H](C)c2c(O)cc(C)c3c2C1=C(C)C(=O)C3=O`, for which the TGI in [17] amounted to 37.4 µM; in assay [2], 32.1 µM; in assay [4], 65.8 µM; in assay [5], 28.3 µM; in assay [18], 33 µM; in [6] it was 48.8 µM. Moreover, the TGI in [7] is 23.4 µM; in assay [8], 29.4 µM; in assay [9], above 100 µM; in assay [10], 26.9 µM; in assay [11], 37.5 µM; in assay [12], 26.5 µM. In addition, the TGI in assay [13] was determined as 32.6 µM; in [14], 31.3 µM; in assay [15], 29.6 µM; in [16], 35.2 µM; in assay [19], 29.8 µM.
On to `COC(=O)n1c(=O)n(-c2ccccc2)c(=O)n1C(=O)Nc1ccccc1`, for which the TGI in assay [17], in [1], in [2], in [3], in [18] and in assay [6] was above 100 µM each time. Also, the TGI in assay [7] is 87.8 µM; in assay [8], above 100 µM; in assay [9] it was above 100 µM; in [10], above 100 µM; in [11], above 100 µM; in [12] it was above 100 µM. The TGI in [13], in assay [14], in assay [20], in assay [15], in assay [16] and in [19] was above 100 µM in each case.
`O=c1cc(-c2ccccc2)oc2ccc(-c3ccc4oc(-c5ccccc5)cc(=O)c4c3)cc12`: the TGI in [17] came out at 27.9 µM; in [1], 21.7 µM; in assay [3], 32.7 µM; in [4], 42.1 µM; in [6], 41.9 µM; in assay [7], 38.9 µM. Moreover, the TGI is 30 µM in assay [8]; 27.5 µM in assay [9]; 30.8 µM in assay [10]; 25.5 µM in [12]; 41.5 µM in [13]; 31.8 µM in [15]. Also, in assay [16], the TGI is 84.5 µM.
In the case of `c1ccc(N=c2sc3ccccc3sc2=Nc2ccccc2)cc1`, the TGI in [17] worked out at 5.65 µM; in assay [1], 2.93 µM; in assay [3], 3.45 µM; in assay [5], 3.15 µM; in assay [18] it was 9.3 µM; in assay [6] it was 3.79 µM. For the same compound, the TGI in assay [7] was 3.68 µM; in [8], 3.57 µM; in [9] it was above 100 µM; in [10], 9.93 µM; in assay [11], 12.7 µM; in [12], 5.14 µM. The TGI in assay [13] was 3.69 µM; in assay [14], 4.25 µM; in assay [20] it was 3.56 µM; in assay [15], 2.66 µM; in assay [16], 3.08 µM; in assay [19], 3.4 µM.
